Assay results from paper PMC7649969, “Pyrazolyl-pyrimidones inhibit the function of human solute carrier protein SLC11A2 (hDMT1) by metal chelation” (RSC Medicinal Chemistry, 2020).

Target: T1, hDMT1 (Homo sapiens, UniProt P49281)
T1 sequence (P49281 1-568): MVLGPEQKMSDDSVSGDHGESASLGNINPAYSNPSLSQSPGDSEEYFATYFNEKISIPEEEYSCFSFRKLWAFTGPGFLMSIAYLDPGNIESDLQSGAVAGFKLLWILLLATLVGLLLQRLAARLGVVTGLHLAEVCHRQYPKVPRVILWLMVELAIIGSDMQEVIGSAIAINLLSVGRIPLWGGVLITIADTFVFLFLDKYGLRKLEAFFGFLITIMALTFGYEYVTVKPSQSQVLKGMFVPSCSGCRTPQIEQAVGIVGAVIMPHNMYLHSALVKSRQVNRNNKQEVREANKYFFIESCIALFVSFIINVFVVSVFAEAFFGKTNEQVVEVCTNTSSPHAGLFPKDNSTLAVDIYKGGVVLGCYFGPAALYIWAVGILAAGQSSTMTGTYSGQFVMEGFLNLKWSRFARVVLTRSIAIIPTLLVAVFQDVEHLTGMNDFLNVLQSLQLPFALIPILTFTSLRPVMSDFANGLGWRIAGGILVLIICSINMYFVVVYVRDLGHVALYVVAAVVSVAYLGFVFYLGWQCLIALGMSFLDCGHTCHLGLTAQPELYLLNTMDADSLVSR
Assay: 55Fe2+ uptake in Xenopus laevis oocytes overexpressing hDMT1
Type: cell-based
Parameters: DsRED; expressed in transfected cells; host or cells: HEK293T (ATCC CRL-3216), transient transfection with Lipofectamine 2000
Conditions: compound 10 μM, 55Fe2+ 20 μM
Procedure: Fig. 3 Characterization of Fe^2+ transport inhibition by 1 and 13 in X. laevis oocytes (collected from frogs under license number BE60/18 conceded by the Veterinärdienst des Kantons BE, Sekretariat Tierversuche). (a) Upper panel: Average ^55Fe^2+-uptake (20 μM) by hDMT1-expressing and non-injected oocytes in the absence and the presence of the indicated compounds (10 μM). Data was normalized to ^55Fe^2+-uptake (pmol min^–1) in the absence of compounds represented as mean ± SD (16–29 oocytes). Lower panel: Net uptake of ^55Fe^2+ (20 μM) by hDMT1 in the absence and the presence of the indicated compounds (10 μM). For each batch of oocytes, uptake values were corrected for unspecific iron uptake in non-injected oocytes. Data were normalized to the mean iron uptake by hDMT1 WT (pmol min^–1) and represented as mean ± SD (14–34 oocytes). (b and c) Electrophysiology. […] For each trace, recorded currents were corrected for the background currents observed without substrate. (b) Representative traces recorded with hDMT1 injected oocytes (upper panel) and non-injected oocytes (lower panel). […] Statistical differences were assessed using T-test or Mann–Whitney U test (Fe^2+-uptake by hDMT1 WT vs. non-injected oocytes or vs. compound); p > 0.05 = ns; p < 0.001 = ***. […]

inhibition of radioactive iron uptake in oocytes | inhibition at 10 µM (read-out: inhibition of radioactive iron uptake in oocytes) | Structure (SMILES)
totally inhibited | – | N=C(N)SCc1cccc2c1oc1c(CSC(=N)N)cccc12 [Compound 1, reference compound]
– | 50% | Cc1cc(=O)[nH]c(-n2nc3c(c2C)CCCC3)n1 [Compound 13]
